In publication PMC4579345 (Journal of acquired immune deficiency syndromes (1999), 2015):
Where two headings read alike, the source gives them in different places.

What was measured:
[1] = Clinical and laboratory toxicity monitoring of mothers and infants; conditions: human, in vivo
[2] = Cord blood and maternal plasma darunavir concentrations at delivery; assay type: in vivo, human
[3] = system: HIV-1 RNA; test: Maternal HIV RNA at delivery and infant HIV infection status; assay type: in vivo; conditions: median (range)
[4] = mean (95%CI), ref 16 (Colbers, et al), cited from earlier work
[5] = cited from earlier work; for Mean decrease in darunavir AUC: third trimester, ref 16 (Colbers, et al)
[6] = system: wild type HIV; conditions: cited from earlier work
[7] = system: HIV RNA; conditions: cited from earlier work
[8] = Ritonavir pharmacokinetic parameters during pregnancy and postpartum; assay type: in vivo, human; conditions: for AUC(0-t): AUC0-12, twice daily dosing; for AUC(0-t) / Cmax: median (interquartile range)
[9] = of 43 subjects, limit 0.09 μg/mL

CC(C)CN(C[C@@H](O)[C@H](Cc1ccccc1)NC(=O)O[C@H]1CO[C@H]2OCC[C@H]21)S(=O)(=O)c1ccc(N)cc1 [darunavir]
Subjects indicating side effects of darunavir as a reason for discontinuation [1]: No subjects | Tolerability during pregnancy and postpartum [1]: well tolerated | Maternal plasma delivery concentration ([2]; median (range), samples above the limit of quantitation): 1.98 µg/mL | Cord blood samples with concentration below the assay limit of quantitation [2, 9]: 15 | Maternal samples with concentration below the assay limit of quantitation [2, 9]: 11 | HIV-1 RNA at delivery ([3]; Combined N=66): <50 (<50 - 66,142) copies/mL | HIV-1 RNA at delivery ([3]; Once Daily Dosing N=32): <50 (<50 - 35,313) copies/mL | HIV-1 RNA at delivery ([3]; Twice Daily Dosing N=34): 51 (<50 - 66,142) copies/mL | Free fraction ([4]; 14 women postpartum): 10% | Free fraction ([4]; 19 women in the third trimester): 12% | Mean decrease in darunavir AUC ([5]; 6 women, twice daily dosing): 34% | Decrease in darunavir AUC ([5]; 14 women dosed twice daily, second and third trimesters, ref 15 (Zorrilla, et al)): 17-24% | Mean decrease in darunavir AUC ([5]; 18 women, once daily dosing): 22% | EC50 for wild type HIV [6]: 0.06 μ/mL | Infected infants ([7]; 12 mothers in the Zorrilla study who remained on therapy at delivery, 15 mothers in the Colbers study): no infected infants | Women with HIV RNA below 1000 copies/mL approaching delivery ([7]; once daily dosing, ref 24 (Colbers, et al)): 93% | Subjects with detectable HIV RNA (>50 copies/mL) during pregnancy ([7]; twice daily dosing, ref 15 (Zorrilla, et al)): 3 of 14

CC(C)c1nc(CN(C)C(=O)N[C@H](C(=O)N[C@@H](Cc2ccccc2)C[C@H](O)[C@H](Cc2ccccc2)NC(=O)OCc2cncs2)C(C)C)cs1 [ritonavir]
AUC(0-t) ([8]; female, human, plasma, oral, postpartum): 5600 ng·h/mL | AUC(0-t) ([8]; female, human, plasma, oral, second trimester): 3900 ng·h/mL | AUC(0-t) ([8]; female, human, plasma, oral, third trimester): 3800 ng·h/mL | Cmax ([8]; female, human, plasma, oral, Cmax, once daily dosing, postpartum): 640 ng/mL | Cmax ([8]; female, human, plasma, oral, Cmax, twice daily dosing, second trimester): 470 ng/mL | Cmax ([8]; female, human, plasma, oral, Cmax, twice daily dosing, third trimester): 460 ng/mL | Ritonavir exposure during pregnancy ([8]; in vivo): reduced | Cmax ([8]; once daily dosing, second trimester): 290 ng/mL | Cmax ([8]; once daily dosing, third trimester): 270 ng/mL
